Experimental data as given in patent US20190047966A1, “NOVEL COMPOUND AND PHARMACOLOGICALLY ACCEPTABLE SALT THEREOF” (MEIJI SEIKA PHARMA CO., LTD., priority 2016, published 2019).
Counter-ions that a name gives are not always drawn.

What was measured:
[1] = target: T1, human histamine H4 receptor (Homo sapiens, UniProt Q9H3N8); experiment: Evaluation of Human H4 Receptor Affinity ([3H]histamine binding); conditions: inhibition constant Ki, CHO-K1 membrane preparation, read-out: Evaluation of H4 Receptor Affinity
T1 construct: purchased PerkinElmer Inc; host or cells: CHO-K1
Summary of the method: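 Radioligand displacement: compound competes with 8.2 nM [3H]histamine at recombinant human H4 receptor in CHO-K1 membranes (Tris-HCl 50 mM pH 7.4, EDTA 1.25 mM; 25 °C, 90 min), with filter-bound radioactivity counted. IC50 was converted to Ki via Cheng-Prusoff (Kd 5.7 nM); 1.0 μM histamine set nonspecific binding.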

[2] = target: human histamine H1 receptor (Homo sapiens, UniProt P35367); experiment: Evaluation of Human H1 Receptor Affinity ([3H]pyrilamine binding); parameters: purchased PerkinElmer Inc; host or cells: CHO-K1; conditions: inhibition constant Ki, CHO-K1 membrane preparation
Chain of human histamine H1 receptor (P35367 whole entry): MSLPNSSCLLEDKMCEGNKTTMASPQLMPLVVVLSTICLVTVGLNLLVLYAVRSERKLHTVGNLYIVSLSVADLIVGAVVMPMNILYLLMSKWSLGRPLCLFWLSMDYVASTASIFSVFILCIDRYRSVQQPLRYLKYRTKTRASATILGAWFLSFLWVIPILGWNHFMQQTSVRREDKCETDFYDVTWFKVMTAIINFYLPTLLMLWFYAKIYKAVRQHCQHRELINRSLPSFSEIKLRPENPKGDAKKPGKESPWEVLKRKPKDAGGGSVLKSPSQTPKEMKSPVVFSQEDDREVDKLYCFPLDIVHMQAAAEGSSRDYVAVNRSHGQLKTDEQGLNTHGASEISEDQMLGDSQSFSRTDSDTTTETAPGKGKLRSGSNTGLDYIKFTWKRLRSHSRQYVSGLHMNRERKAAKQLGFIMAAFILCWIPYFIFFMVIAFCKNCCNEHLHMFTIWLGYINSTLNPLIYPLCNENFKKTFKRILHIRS
Summary of the method: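 Ki values are Cheng-Prusoff conversions of IC50 (Kd 1.1 nM) from radioligand displacement of 1.2 nM [3H]pyrilamine, with 1.0 μM pyrilamine defining nonspecific binding.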

Row | Ki [1] | Ki [2] | Compound
1 | 100 to 500 nM | < 100 nM | Nc1nc2c(c(N3CCN(CCc4cccc(OCC(=O)O)c4)CC3)n1)CCc1cc(OCc3ccc(Cl)cc3)ccc1-2 [Example 139, 2-(3-(2-(4-(2-amino-8-((4-chlorobenzyl)oxy)-5,6-dihydrobenzo[h]quinazolin-4-yl)piperazin-1-yl)ethyl)phenoxy)acetic acid dihydrochloride]
2 | 100 to 500 nM | 100 to 500 nM | CN1CCN(c2nc(N)nc3c2CCc2cc(NS(=O)(=O)N4CCC(F)(F)CC4)ccc2-3)CC1 [Example 194, N-(2-amino-4-(4-methylpiperazin-1-yl)-5,6-dihydrobenzo[h]quinazolin-8-yl)-4,4-difluoropiperidine-1-sulfonamide]
3 | < 100 nM | < 100 nM | CN1CCN(c2nc(N)nc3c2CCc2cc(NS(=O)(=O)CCCc4ccccc4)ccc2-3)CC1 [Example 52, N-(2-amino-4-(4-methylpiperazin-1-yl)-5,6-dihydrobenzo[h]quinazolin-8-yl)-3-phenylpropane-1-sulfonamide]
4 | 100 to 500 nM | < 100 nM | Nc1nc2c(c(N3CCN(CCO[C@H]4C[C@@H]5[C@H](C4)[C@H]5C(=O)O)CC3)n1)CCc1cc(OCc3ccc(OC(F)(F)F)cc3)ccc1-2 [Example 146, (1R,3r,5S,6r)-3-(2-(4-(2-amino-8-((4-(trifluoromethoxy)benzyl)oxy)-5,6-dihydrobenzo[h]quinazolin-4-yl)piperazin-1-yl)ethoxy)bicyclo[3.1.0]hexane-6-carboxylic acid]
5 | < 100 nM | < 100 nM | Nc1nc2c(c(N3CCN(CCOCc4nc(C(=O)O)cs4)CC3)n1)CCc1cc(OCc3ccc(OC(F)(F)F)cc3)ccc1-2 [Example 142, 2-((2-(4-(2-amino-8-((4-(trifluoromethoxy)benzyl)oxy)-5,6-dihydrobenzo[h]quinazolin-4-yl)piperazin-1-yl)ethoxy)methyl)thiazole-4-carboxylic acid dihydrochloride]
6 | < 100 nM | < 100 nM | Nc1nc2c(c(N3CCN(CCOCCn4cc(C(=O)O)cn4)CC3)n1)CCc1cc(OCc3ccc(Cl)cc3)ccc1-2 [Example 133, 1-(2-(2-(4-(2-amino-8-((4-chlorobenzyl)oxy)-5,6-dihydrobenzo[h]quinazolin-4-yl)piperazin-1-yl)ethoxy)ethyl)-1H-pyrazole-4-carboxylic acid dihydrochloride]
7 | < 100 nM | < 100 nM | Nc1nc2c(c(N3CCN(CCCCCOCC(=O)O)CC3)n1)CCc1cc(OCc3ccccc3)ccc1-2 [Example 120, 2-((5-(4-(2-amino-8-(benzyloxy)-5,6-dihydrobenzo[h]quinazolin-4-yl)piperazin-1-yl)pentyl)oxy)acetic acid]
8 | 100 to 500 nM | < 100 nM | Nc1nc2c(c(N3CCN(CCOCC4CC(C(=O)O)C4)CC3)n1)CCc1cc(OCc3ccc(Cl)cc3)ccc1-2 (stereo not drawn) [Example 169, cis- or trans-3-((2-(4-(2-amino-8-((4-chlorobenzyl)oxy)-5,6-dihydrobenzo[h]quinazolin-4-yl)piperazin-1-yl)ethoxy)methyl)cyclobutane-1-carboxylic acid]
9 | 100 to 500 nM | < 100 nM | Nc1nc2c(c(N3CCN(CCOC[C@H]4C[C@H](C(=O)O)O4)CC3)n1)CCc1cc(OCc3ccc(OC(F)(F)F)cc3)ccc1-2 (relative stereo) [Example 177, trans-4-((2-(4-(2-amino-8-((4-(trifluoromethoxy)benzyl)oxy)-5,6-dihydrobenzo[h]quinazolin-4-yl)piperazin-1-yl)ethoxy)methyl)oxetane-2-carboxylic acid]
10 | 100 to 500 nM | 100 to 500 nM | CN1CCN(c2nc(N)nc3c2CCc2cc(NS(=O)(=O)c4ccc(Cl)s4)ccc2-3)CC1 [Example 44, N-(2-amino-4-(4-methylpiperazin-1-yl)-5,6-dihydrobenzo[h]quinazolin-8-yl)-5-chlorothiophene-2-sulfonamide]
11 | < 100 nM | < 100 nM | Nc1nc2c(c(N3CCN(CCOC[C@@H]4CCC[C@H](C(=O)O)C4)CC3)n1)CCc1cc(OCc3ccc(OC(F)(F)F)cc3)ccc1-2 (relative stereo) [Example 186, cis-3-((2-(4-(2-amino-8-((4-(trifluoromethoxy)benzyl)oxy)-5,6-dihydrobenzo[h]quinazolin-4-yl)piperazin-1-yl)ethoxy)methyl)cyclohexane-1-carboxylic acid dihydrochloride]

More lines, now with the values behind:

Row | Compound | Ki [1] | Ki [2]
12 | COC(=O)c1ccc(COCCN2CCN(c3nc(N)nc4c3CCc3cc(OCc5ccc(OC(F)(F)F)cc5)ccc3-4)CC2)o1 [20(a), methyl 5-((2-(4-(2-amino-8-((4-(trifluoromethoxy)benzyl)oxy)-5,6-dihydrobenzo[h]quinazolin-4-yl)piperazin-1-yl)ethoxy)methyl)furan-2-carboxylate] | 100 to 500 nM | < 100 nM
13 | COC(=O)c1cccc(OCCCN2CCN(c3nc(N)nc4c3CCc3cc(OCc5ccc(Cl)cc5)ccc3-4)CC2)c1 [131(a), methyl 3-(3-(4-(2-amino-8-((4-chlorobenzyl)oxy)-5,6-dihydrobenzo[h]quinazolin-4-yl)piperazin-1-yl)propoxy)benzoate] | 100 to 500 nM | < 100 nM
14 | Nc1nc2c(c(N3CCN(CCOCc4ccc(C(=O)O)cc4)CC3)n1)CCc1cc(OCc3ccc(Cl)cc3)ccc1-2 [128(b), 4-((2-(4-(2-amino-8-((4-chlorobenzyl)oxy)-5,6-dihydrobenzo[h]quinazolin-4-yl)piperazin-1-yl)ethoxy)methyl)benzoic acid] | < 100 nM | < 100 nM
15 | CCOC(=O)[C@]1(C)C[C@H](OCCN2CCN(c3nc(N)nc4c3CCc3cc(OCc5ccc(Cl)cc5)ccc3-4)CC2)C1 [26(a), ethyl cis-3-(2-(4-(2-amino-8-((4-chlorobenzyl)oxy)-5,6-dihydrobenzo[h]quinazolin-4-yl)piperazin-1-yl)ethoxy)-1-methylcyclobutane-1-carboxylate] | 100 to 500 nM | < 100 nM
16 | COC(=O)c1cccc(COCCN2CCN(c3nc(N)nc4c3CCc3cc(OCc5ccc(Cl)cc5)ccc3-4)CC2)c1 [15(a), methyl 3-((2-(4-(2-amino-8-((4-chlorobenzyl)oxy)-5,6-dihydrobenzo[h]quinazolin-4-yl)piperazin-1-yl)ethoxy)methyl)benzoate] | 100 to 500 nM | < 100 nM
17 | Nc1nc2c(c(N3CCN(CCOCC4CNC4)CC3)n1)CCc1cc(OCc3ccc(OC(F)(F)F)cc3)ccc1-2 [38(b), 4-(4-(2-(azetidin-3-ylmethoxy)ethyl)piperazin-1-yl)-8-((4-(trifluoromethoxy)benzyl)oxy)-5,6-dihydrobenzo[h]quinazolin-2-amine] | < 100 nM | < 100 nM
18 | N#CC1(C(=O)O)CCC(COCCN2CCN(c3nc(N)nc4c3CCc3cc(OCc5ccc(Cl)cc5)ccc3-4)CC2)CC1 (stereo not drawn) [159(b), cis- or trans-4-((2-(4-(2-amino-8-((4-chlorobenzyl)oxy)-5,6-dihydrobenzo[h]quinazolin-4-yl)piperazin-1-yl)ethoxy)methyl)-1-cyanocyclohexane-1-carboxylic acid hydrochloride] | < 100 nM | < 100 nM
19 | cis-3-(2-(4-(2-amino-8-((4-((trifluoromethyl)cyclohexyl)methoxy)-5,6-dihydrobenzo[h]quinazolin-4-yl)piperazin-1-yl)ethoxy)cyclobutane-l-carboxylic acid [Example 215] | 100 to 500 nM | < 100 nM
